According to publication PMC9948168, “Vanillin-Based Indolin-2-one Derivative Bearing a Pyridyl Moiety as a Promising Anti-Breast Cancer Agent via Anti-Estrogenic Activity” (ACS Omega, 2023):

Key:
Assay in all cases: NCI-60 one-dose screening
Type in all cases: cell-based
OVCAR-5 = settings: Homo sapiens, OVCAR-5, Ovarian Cancer, read-out: GI (%)
Method: (§1) Compounds 5a–c and 6a–o were tested using standard NCI protocols for in vitro activity at the National Cancer Institute (NCI, Bethesda, Maryland, USA), wherein compounds were tested using one single concentration of 10 μM against 60 cell lines of nine different cancer types. […] Excellent activity was observed against a single NSCLC cell line, EKVX, for compounds 5a–c (GIs = 77–86%, Table 1) with no observed activity for indoles with substituted vanillin 6a–o.
(§2) Anticancer activity was tested against 60 cancer cell lines at the NCI, Bethesda, USA. The screening process was done with a single dosage of 10 μM according to NCI protocols published on the NCI website https://dtp.cancer.gov/discovery_development/nci-60/methodology.htm.

NCI-H460 = settings: Homo sapiens, NCI-H460, Non-Small Cell Lung Cancer, read-out: GI (%)
Method: as §1, §2

UO-31 = settings: Homo sapiens, UO-31, Renal Cancer, read-out: GI (%)
Method: as §1, §2

TK-10 = settings: Homo sapiens, TK-10, Renal Cancer, read-out: GI (%)
Method: as §1, §2

NCI-H322M = settings: Homo sapiens, Non-Small Cell Lung Cancer, read-out: GI (%)
Method: as §1, §2

MDA-MB-435 = settings: Homo sapiens, MDA-MB-435, Melanoma, read-out: GI (%)
Method: as §1, §2

KM12 = settings: Homo sapiens, KM12, Colon Cancer, read-out: GI (%)
Method: as §1, §2

786-0 = settings: Homo sapiens, 786-0, Renal Cancer, read-out: GI (%)
Method: as §1, §2

NCI/ADR-RES = settings: Homo sapiens, Ovarian Cancer, read-out: GI (%)
Method: as §1, §2

MOLT-4 = settings: Homo sapiens, MOLT-4, Leukemias, read-out: GI (%)
Method: as §1, §2

NCI-H23 = settings: Homo sapiens, NCI-H23, Non-Small Cell Lung Cancer, read-out: GI (%)
Method: as §1, §2

A498 = settings: Homo sapiens, A498, Renal Cancer, read-out: GI (%)
Method: as §1, §2

BT-549 = settings: Homo sapiens, BT-549, Breast Cancer, read-out: GI (%)
Method: as §1, §2

MALME-3M = settings: Homo sapiens, Melanoma, read-out: GI (%)
Method: as §1, §2

IGROV1 = settings: Homo sapiens, IGROV-1, IGROV1, Ovarian Cancer, read-out: GI (%)
Method: as §1, §2

NCI-H226 = settings: Homo sapiens, NCI-H226, Non-Small Cell Lung Cancer, read-out: GI (%)
Method: as §1, §2

K-562 = settings: Homo sapiens, K562, K-562, Leukemias, read-out: GI (%)
Method: as §1, §2

SR = settings: Homo sapiens, Leukemias, read-out: GI (%)
Method: as §1, §2

UACC-257 = settings: Homo sapiens, UACC-257, Melanoma, read-out: GI (%)
Method: as §1, §2

SF-295 = settings: Homo sapiens, SF-295, CNS Cancer, read-out: GI (%)
Method: as §1, §2

ACHN = settings: Homo sapiens, Renal Cancer, read-out: GI (%)
Method: as §1, §2

SW-620 = settings: Homo sapiens, SW-620, Colon Cancer, read-out: GI (%)
Method: as §1, §2

HCT-15 = settings: Homo sapiens, HCT-15, Colon Cancer, read-out: GI (%)
Method: as §1, §2

HCT-116 = settings: Homo sapiens, HCT-116, Colon Cancer, read-out: GI (%)
Method: as §1, §2

OVCAR-3 = settings: Homo sapiens, OVCAR-3, 10 μM; OVCAR-3, Ovarian Cancer; read-out: GI (%)
Method: as §1, §2

HT29 = settings: Homo sapiens, HT-29, HT29, Colon Cancer, read-out: GI (%)
Method: as §1, §2

OVCAR-4 = settings: Homo sapiens, OVCAR-4, 10 μM; OVCAR-4, Ovarian Cancer; read-out: GI (%)
Method: as §1, §2

U251 = settings: Homo sapiens, U-251, U251, CNS Cancer, read-out: GI (%)
Method: as §1, §2

A549/ATCC = settings: Homo sapiens, Non-Small Cell Lung Cancer, read-out: GI (%)
Method: as §1, §2

HOP-62 = settings: Homo sapiens, HOP-62, Non-Small Cell Lung Cancer, read-out: GI (%)
Method: as §1, §2

SK-MEL-2 = settings: Homo sapiens, SK-MEL-2, Melanoma, read-out: GI (%)
Method: as §1, §2

COLO 205 = settings: Homo sapiens, COLO 205, Colon Cancer, read-out: GI (%)
Method: as §1, §2

LOX IMVI = settings: Homo sapiens, Melanoma, read-out: GI (%)
Method: as §1, §2

EKVX = settings: Homo sapiens, Non-Small Cell Lung Cancer, read-out: GI (%)
Method: as §1, §2

SF-539 = settings: Homo sapiens, SF-539, CNS Cancer, read-out: GI (%)
Method: as §1, §2

DU-145 = settings: Homo sapiens, DU-145, Prostate Cancer, read-out: GI (%)
Method: as §1, §2

SMILES | inhibition at 10 µM (OVCAR-5) | inhibition at 10 µM (NCI-H460) | inhibition at 10 µM (UO-31) | inhibition at 10 µM (TK-10) | inhibition at 10 µM (NCI-H322M) | inhibition at 10 µM (MDA-MB-435) | inhibition at 10 µM (KM12) | inhibition at 10 µM (786-0) | inhibition at 10 µM (NCI/ADR-RES) | inhibition at 10 µM (MOLT-4) | inhibition at 10 µM (NCI-H23) | inhibition at 10 µM (A498) | inhibition at 10 µM (BT-549) | inhibition at 10 µM (MALME-3M) | inhibition at 10 µM (IGROV1) | inhibition at 10 µM (NCI-H226) | inhibition at 10 µM (K-562) | inhibition at 10 µM (SR) | inhibition at 10 µM (UACC-257) | inhibition at 10 µM (SF-295) | other results
COc1cc(C=C2C(=O)Nc3ccccc32)ccc1O (mixture of isomers) [5a] | -2.51% | 8.35% | 47.7% | -90.5% | 19.5% | 18.5% | 9.4% | -0.72% | 8.73% | 10.4% | 16% | 2.96% | 25.6% | 7.51% | 25.6% | -2.09% | 9.79% | 36% | 11.3% | 7.71% | inhibition at 10 µM (ACHN): 22.8%; inhibition at 10 µM (SW-620): -0.49%; inhibition at 10 µM (HCT-15): 25.7%; inhibition at 10 µM (HCT-116): 24.2%; inhibition at 10 µM (OVCAR-3): 19.4%; inhibition at 10 µM (HT29): -1.86%; inhibition at 10 µM (OVCAR-4): 18.2%; inhibition at 10 µM (U251): 22.2%; inhibition at 10 µM (A549/ATCC): 3.48%; inhibition at 10 µM (HOP-62): 20.7%; inhibition at 10 µM (SK-MEL-2): 7.03%; inhibition at 10 µM (COLO 205): -13.8%; inhibition at 10 µM (LOX IMVI): 28.6%; inhibition at 10 µM (EKVX): 82.6%; inhibition at 10 µM (SF-539): 22.6%; inhibition at 10 µM (DU-145): 11.2%
COc1cc(C=C2C(=O)Nc3ccc(Cl)cc32)ccc1O (mixture of isomers) [5b] | 0.41% | 7.4% | 45% | -56.3% | 14.1% | 19.4% | 7.96% | 0.79% | 9.66% | 23.1% | 15.6% | 25.6% | 25% | 3.24% | 16.2% | 2.25% | 28.1% | 47.9% | 13.5% | 8.92% | inhibition at 10 µM (ACHN): 26%; inhibition at 10 µM (SW-620): -3.74%; inhibition at 10 µM (HCT-15): 25.2%; inhibition at 10 µM (HCT-116): 21.2%; inhibition at 10 µM (OVCAR-3): 25.8%; inhibition at 10 µM (HT29): -0.33%; inhibition at 10 µM (OVCAR-4): 18.8%; inhibition at 10 µM (U251): 39.8%; inhibition at 10 µM (A549/ATCC): 3.56%; inhibition at 10 µM (HOP-62): 16.5%; inhibition at 10 µM (SK-MEL-2): 6.25%; inhibition at 10 µM (COLO 205): -11.7%; inhibition at 10 µM (LOX IMVI): 22.5%; inhibition at 10 µM (EKVX): 86.3%; inhibition at 10 µM (SF-539): 46.4%; inhibition at 10 µM (DU-145): 33.1%
COc1cc(C=C2C(=O)Nc3ccccc32)ccc1OCc1ccccc1 (mixture of isomers) [6a] | -2.62% | 20.2% | 25.3% | -40.3% | 5.18% | -3.92% | -0.02% | -0.73% | 1.52% | 1.73% | -2.84% | -0.19% | 1.2% | 8.77% | 5.2% | -0.06% | 3.5% | 14.6% | -21.2% | -1.61% | inhibition at 10 µM (ACHN): 6.95%; inhibition at 10 µM (SW-620): 9.55%; inhibition at 10 µM (HCT-15): 12.2%; inhibition at 10 µM (HCT-116): 10.3%; inhibition at 10 µM (OVCAR-3): 11%; inhibition at 10 µM (HT29): -2.25%; inhibition at 10 µM (OVCAR-4): 3.22%; inhibition at 10 µM (U251): -6.68%; inhibition at 10 µM (A549/ATCC): -9.96%; inhibition at 10 µM (HOP-62): -3.56%; inhibition at 10 µM (SK-MEL-2): -10.6%; inhibition at 10 µM (COLO 205): -17.8%; inhibition at 10 µM (LOX IMVI): 7.61%; inhibition at 10 µM (EKVX): 8.21%; inhibition at 10 µM (SF-539): 0.76%; inhibition at 10 µM (DU-145): 0.43%
COc1cc(C=C2C(=O)Nc3ccccc32)ccc1OCc1ccccn1 (mixture of isomers) [6e] | -3.35% | 0.59% | 30.7% | -51.2% | 8.2% | -7.05% | 3.09% | 1.32% | 4.39% | 12.5% | 12.6% | 22.2% | -6.45% | 6.1% | 21% | 6.29% | 19.6% | 21.7% | -10.9% | 4.7% | inhibition at 10 µM (ACHN): 9.08%; inhibition at 10 µM (SW-620): -0.45%; inhibition at 10 µM (HCT-15): 20%; inhibition at 10 µM (HCT-116): 3.95%; inhibition at 10 µM (OVCAR-3): 0.9%; inhibition at 10 µM (HT29): 1.19%; inhibition at 10 µM (OVCAR-4): 8.74%; inhibition at 10 µM (U251): 9.28%; inhibition at 10 µM (A549/ATCC): -7.19%; inhibition at 10 µM (HOP-62): 7.92%; inhibition at 10 µM (SK-MEL-2): -1.21%; inhibition at 10 µM (COLO 205): -16%; inhibition at 10 µM (LOX IMVI): 3.36%; inhibition at 10 µM (EKVX): 22.4%; inhibition at 10 µM (SF-539): 15.1%; inhibition at 10 µM (DU-145): 1.98%
COc1cc(C=C2C(=O)Nc3ccc(Cl)cc32)ccc1OCc1ccc(F)cc1 (mixture of isomers) [6h] | 3.31% | 29.5% | 25.7% | -29% | 10.7% | 8.73% | -0.4% | -0.02% | 11.7% | 23.3% | 18.8% | 6.57% | -1.21% | 17.7% | 22.7% | 4.31% | 11.4% | 58.1% | -1.98% | 2.31% | inhibition at 10 µM (ACHN): 47.3%; inhibition at 10 µM (SW-620): 40.3%; inhibition at 10 µM (HCT-15): 13.6%; inhibition at 10 µM (HCT-116): 52.1%; inhibition at 10 µM (HT29): 5.93%; inhibition at 10 µM (OVCAR-4): 74 to 97%; inhibition at 10 µM (U251): 49.3%; inhibition at 10 µM (A549/ATCC): 15.1%; inhibition at 10 µM (HOP-62): 7.95%; inhibition at 10 µM (SK-MEL-2): -7.21%; inhibition at 10 µM (COLO 205): 6.56%; inhibition at 10 µM (LOX IMVI): 31.7%; inhibition at 10 µM (EKVX): 11.5%; inhibition at 10 µM (SF-539): 7.83%; inhibition at 10 µM (DU-145): 10.5%
